According to PMC7834858 (Antiviral Research, 2020):
Where two headings read alike, the source gives them in different places.

Legend:
[1] = system: human beta-coronavirus OC43–CoV; experiment: OC43-CoV cytopathic effect antiviral assay in HeLa cells; format: cell-based
SARS-CoV-2 3CLpro = SARS-CoV-2 3CLpro (Severe acute respiratory syndrome coronavirus 2, UniProt P0DTD1); format: biochemical
SARS-CoV-2 = format: cell-based
[2] = system: human beta-coronavirus OC43–CoV; experiment: OC43-CoV cytopathic effect antiviral assay in MRC-5 cells; format: cell-based; conditions: MRC5, 120 h, read-out: OC-43 MRC-5 Cells EC50
COVID-19 = COVID-19 hospitalized patients; ref Beigel et al., 2020; cited from earlier work
[3] = no reducing agent vs 1 mM GSH vs 1 mM DTT

O=c1c2ccccc2[se]n1-c1ccccc1 [Ebselen]
Cytotoxicity (in words) (HeLa cells): cytotoxic
Antiviral activity against OC43 (in words) [1]: inactive
Concentrations at which SARS-CoV-2 3CLpro was inhibited (SARS-CoV-2 3CLpro): > 30 µM
Effect of reducing conditions on inhibition potency (SARS-CoV-2 3CLpro): impacted by the reducing condition
Inhibition of SARS-CoV-2 3CLpro activity in SAMDI-MS assay (in words) (SARS-CoV-2 3CLpro): did not inhibit
Inhibition of SARS-CoV-2 replication (in words) (SARS-CoV-2): did not inhibit SARS-CoV-2 replication
EC50 [2]: > 100 µM
Toxicity to Vero cells (in words) (VeroE6 cells): toxic to Vero cells

CCC(CC)COC(=O)[C@H](C)N[P@](=O)(OC[C@H]1O[C@@](C#N)(c2ccc3c(N)ncnn23)[C@H](O)[C@@H]1O)Oc1ccccc1 [Remdesivir]
EC50 [2]: 0.21 µM
Effect on mortality (COVID-19): no significant effect

CC(C)=CC[C@@H](O)C1=CC(=O)c2c(O)ccc(O)c2C1=O [Shikonin]
Cytotoxicity (in words) (HeLa cells): cytotoxic
Antiviral activity against OC43 (in words) [1]: inactive
Effect of reducing conditions on inhibition potency (SARS-CoV-2 3CLpro; [3]): marked loss of inhibition in the presence of DTT or GSH
Inhibition of SARS-CoV-2 3CLpro activity in SAMDI-MS assay (in words) (SARS-CoV-2 3CLpro; reducing conditions (DTT)): failed to inhibit
Inhibition of SARS-CoV-2 3CLpro activity in SAMDI-MS assay (in words) (SARS-CoV-2 3CLpro; reducing conditions (DTT), listed as shikonin): did not inhibit
Inhibition of SARS-CoV-2 replication (in words) (SARS-CoV-2): did not inhibit SARS-CoV-2 replication
EC50 [2]: > 100 µM
Toxicity to Vero cells (in words) (VeroE6 cells): toxic to Vero cells

CCN(CC)C(=S)SSC(=S)N(CC)CC [Disulfiram]
Antiviral activity against OC43 (in words) [1]: inactive
Concentrations at which SARS-CoV-2 3CLpro was inhibited (SARS-CoV-2 3CLpro; absence of reducing agent only): > 30 µM
Effect of reducing conditions on inhibition potency (SARS-CoV-2 3CLpro; [3]): impacted by the reducing condition
Inhibition of SARS-CoV-2 3CLpro activity in SAMDI-MS assay (in words) (SARS-CoV-2 3CLpro; reducing conditions (DTT)): did not inhibit
Inhibition of SARS-CoV-2 replication (in words) (SARS-CoV-2): did not inhibit SARS-CoV-2 replication
EC50 [2]: > 100 µM
